Measurements taken from patent publication US11117892B2, “Pyrrolo-pyridine derivative compound, method for preparing same, and pharmaceutical composition containing same as active ingredient for prevention or treatment of protein kinase-related diseases” (DAEGU-GYEONGBUK MEDICAL INNOVATION FOUNDATION, priority 2017, dated 2021).
Where two headings read alike, the source gives them in different places.

Assays:
Test in all cases: scanMAX Kinase assay panel
Format in all cases: binding
[1] = biological target: ABL1(M351T)-phosphorylated (Homo sapiens (Human), UniProt P00519, M351T); settings: read-out: % control
How it was run: (§1)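 Panel: scanMAX. Metric: % control. The 100% anchor is DMSO and the 0% anchor is the positive control.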

ABL1-nonphosphorylated = ABL1-nonphosphorylated (Homo sapiens (Human), UniProt P00519); settings: read-out: % control
How it was run: as §1

ACVR1 = ACVR1 (Homo sapiens (Human), UniProt Q04771); settings: read-out: % control
Chain of ACVR1 (Q04771 21-509): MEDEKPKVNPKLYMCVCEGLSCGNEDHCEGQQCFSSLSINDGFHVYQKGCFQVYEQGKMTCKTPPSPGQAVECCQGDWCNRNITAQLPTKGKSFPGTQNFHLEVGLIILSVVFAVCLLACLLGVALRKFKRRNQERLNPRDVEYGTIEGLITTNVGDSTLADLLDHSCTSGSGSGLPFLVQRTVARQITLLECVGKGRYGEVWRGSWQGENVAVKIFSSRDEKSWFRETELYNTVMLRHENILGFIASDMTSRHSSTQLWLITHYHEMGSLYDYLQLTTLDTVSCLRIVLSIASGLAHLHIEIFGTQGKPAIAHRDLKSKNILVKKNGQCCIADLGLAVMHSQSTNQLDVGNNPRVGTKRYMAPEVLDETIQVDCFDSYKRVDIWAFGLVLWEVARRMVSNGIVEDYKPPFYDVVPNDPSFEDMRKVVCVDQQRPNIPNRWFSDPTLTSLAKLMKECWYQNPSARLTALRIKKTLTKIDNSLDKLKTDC
How it was run: as §1

AKT2 = AKT2 (Homo sapiens (Human), UniProt P31751); settings: read-out: % control
How it was run: as §1

AURKC = AURKC (Homo sapiens (Human), UniProt Q9UQB9); settings: read-out: % control
How it was run: as §1

CDK4 = CDK4 (Homo sapiens (Human), UniProt P11802); settings: read-out: % control
How it was run: as §1

CDK7 = CDK7 (Homo sapiens (Human), UniProt P50613); settings: read-out: % control
How it was run: as §1

CDK8 = CDK8 (Homo sapiens (Human), UniProt P49336); settings: read-out: % control
How it was run: as §1

CHEK2 = CHEK2 (Homo sapiens (Human), UniProt O96017); settings: read-out: % control
How it was run: as §1

CSNK1D = CSNK1D (Homo sapiens (Human), UniProt P48730); settings: read-out: % control
Chain of CSNK1D (P48730 whole entry): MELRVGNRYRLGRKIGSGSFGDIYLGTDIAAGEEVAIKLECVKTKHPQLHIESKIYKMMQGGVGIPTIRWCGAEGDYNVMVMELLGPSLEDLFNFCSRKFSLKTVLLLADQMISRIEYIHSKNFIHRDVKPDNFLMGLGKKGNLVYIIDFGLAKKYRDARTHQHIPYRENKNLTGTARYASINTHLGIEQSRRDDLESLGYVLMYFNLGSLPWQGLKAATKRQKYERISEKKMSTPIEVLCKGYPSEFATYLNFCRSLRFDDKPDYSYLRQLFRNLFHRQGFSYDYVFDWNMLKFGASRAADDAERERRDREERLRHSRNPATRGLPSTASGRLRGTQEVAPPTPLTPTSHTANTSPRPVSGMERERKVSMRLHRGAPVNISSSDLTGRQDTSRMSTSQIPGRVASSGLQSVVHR
How it was run: as §1

CSNK2A1 = CSNK2A1 (Homo sapiens (Human), UniProt P68400); settings: read-out: % control
Chain of CSNK2A1 (P68400 whole entry): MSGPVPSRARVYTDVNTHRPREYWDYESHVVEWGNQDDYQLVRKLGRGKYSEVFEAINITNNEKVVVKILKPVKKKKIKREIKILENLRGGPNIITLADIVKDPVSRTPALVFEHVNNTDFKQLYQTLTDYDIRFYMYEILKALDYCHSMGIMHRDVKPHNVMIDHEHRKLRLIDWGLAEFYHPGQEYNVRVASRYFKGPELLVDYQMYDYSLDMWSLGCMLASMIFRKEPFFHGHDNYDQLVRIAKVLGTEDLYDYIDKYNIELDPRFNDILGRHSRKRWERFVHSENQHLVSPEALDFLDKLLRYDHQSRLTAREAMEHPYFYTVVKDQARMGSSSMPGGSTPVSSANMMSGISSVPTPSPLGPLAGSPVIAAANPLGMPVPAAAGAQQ
How it was run: as §1

DRAK2 = DRAK2 (Homo sapiens (Human), UniProt O94768); settings: read-out: % control
How it was run: as §1

EPHA4 = EPHA4 (Homo sapiens (Human), UniProt P54764); settings: read-out: % control
How it was run: as §1

EPHA7 = EPHA7 (Homo sapiens (Human), UniProt Q15375); settings: read-out: % control
How it was run: as §1

ERBB2 = ERBB2 (Homo sapiens (Human), UniProt P04626); settings: read-out: % control
How it was run: as §1

ERK8 = ERK8 (Homo sapiens (Human), UniProt Q8TD08); settings: read-out: % control
How it was run: as §1

FLT3(ITD, D835V) = settings: 1 uM
How it was run: as §1

FRK = FRK (Homo sapiens (Human), UniProt P42685); settings: read-out: % control
How it was run: as §1

GRK2 = GRK2 (Homo sapiens (Human), UniProt P25098); settings: read-out: % control
Chain of GRK2 (P25098 whole entry): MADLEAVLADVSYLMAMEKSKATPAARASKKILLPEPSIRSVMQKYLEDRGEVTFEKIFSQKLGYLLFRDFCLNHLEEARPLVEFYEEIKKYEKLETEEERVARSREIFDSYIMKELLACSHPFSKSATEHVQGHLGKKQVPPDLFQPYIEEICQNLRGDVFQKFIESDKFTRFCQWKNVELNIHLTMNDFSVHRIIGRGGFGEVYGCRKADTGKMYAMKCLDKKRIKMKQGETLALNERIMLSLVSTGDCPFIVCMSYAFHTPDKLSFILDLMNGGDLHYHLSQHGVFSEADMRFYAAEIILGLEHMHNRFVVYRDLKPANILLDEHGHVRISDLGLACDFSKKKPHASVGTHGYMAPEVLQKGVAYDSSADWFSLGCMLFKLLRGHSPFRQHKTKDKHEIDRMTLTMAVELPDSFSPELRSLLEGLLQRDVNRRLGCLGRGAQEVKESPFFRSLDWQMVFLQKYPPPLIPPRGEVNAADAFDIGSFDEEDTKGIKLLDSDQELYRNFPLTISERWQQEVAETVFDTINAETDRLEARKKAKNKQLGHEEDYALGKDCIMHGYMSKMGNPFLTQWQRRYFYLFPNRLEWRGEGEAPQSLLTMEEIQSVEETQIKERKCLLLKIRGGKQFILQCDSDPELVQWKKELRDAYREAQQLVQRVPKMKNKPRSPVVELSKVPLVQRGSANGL
How it was run: as §1

HASPIN = HASPIN (Homo sapiens (Human), UniProt Q8TF76); settings: read-out: % control
How it was run: as §1

HIPK4 = HIPK4 (Homo sapiens (Human), UniProt Q8NE63); settings: read-out: % control
Chain of HIPK4 (Q8NE63 whole entry): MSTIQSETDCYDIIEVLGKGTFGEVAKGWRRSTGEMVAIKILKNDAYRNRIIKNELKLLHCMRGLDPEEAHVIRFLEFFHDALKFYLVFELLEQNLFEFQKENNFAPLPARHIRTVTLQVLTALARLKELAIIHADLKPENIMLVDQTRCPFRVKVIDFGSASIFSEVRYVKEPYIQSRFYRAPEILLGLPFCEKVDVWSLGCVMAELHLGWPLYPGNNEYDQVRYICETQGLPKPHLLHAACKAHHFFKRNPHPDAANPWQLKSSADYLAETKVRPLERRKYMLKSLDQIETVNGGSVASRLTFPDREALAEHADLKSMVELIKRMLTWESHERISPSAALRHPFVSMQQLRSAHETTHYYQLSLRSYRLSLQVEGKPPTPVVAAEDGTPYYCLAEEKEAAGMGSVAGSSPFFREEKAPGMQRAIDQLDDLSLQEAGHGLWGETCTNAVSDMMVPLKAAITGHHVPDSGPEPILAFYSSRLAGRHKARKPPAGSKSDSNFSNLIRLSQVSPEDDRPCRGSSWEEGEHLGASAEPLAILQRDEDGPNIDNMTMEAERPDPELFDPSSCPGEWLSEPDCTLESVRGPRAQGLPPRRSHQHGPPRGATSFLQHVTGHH
How it was run: as §1

[2] = biological target: JAK1(JH2domain-pseudokinase) (Homo sapiens (Human), UniProt P23458); settings: read-out: % control
How it was run: as §1

[3] = biological target: JAK3(JH1domain-catalytic) (Homo sapiens (Human), UniProt P52333); settings: read-out: % control
Chain of JAK3(JH1domain-catalytic) (P52333 822-1111): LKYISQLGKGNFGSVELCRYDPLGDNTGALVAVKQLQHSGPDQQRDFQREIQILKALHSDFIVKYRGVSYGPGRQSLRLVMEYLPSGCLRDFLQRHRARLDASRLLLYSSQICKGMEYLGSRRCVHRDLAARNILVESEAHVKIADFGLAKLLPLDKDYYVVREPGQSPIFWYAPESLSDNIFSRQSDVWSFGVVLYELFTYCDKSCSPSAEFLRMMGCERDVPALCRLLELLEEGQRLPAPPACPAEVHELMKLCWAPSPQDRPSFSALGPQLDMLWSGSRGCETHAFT
How it was run: as §1

MAP3K1 = MAP3K1 (Homo sapiens (Human), UniProt Q13233); settings: read-out: % control
How it was run: as §1

MEK5 = MEK5 (Homo sapiens (Human), UniProt Q13163); settings: read-out: % control
How it was run: as §1

MYLK2 = MYLK2 (Homo sapiens (Human), UniProt Q9H1R3); settings: read-out: % control
How it was run: as §1

NEK10 = NEK10 (Homo sapiens (Human), UniProt Q6ZWH5); settings: read-out: % control
How it was run: as §1

NEK7 = NEK7 (Homo sapiens (Human), UniProt Q8TDX7); settings: read-out: % control
How it was run: as §1

OSR1 = OSR1 (Homo sapiens (Human), UniProt O95747); settings: read-out: % control
How it was run: as §1

PAK4 = PAK4 (Homo sapiens (Human), UniProt O96013); settings: read-out: % control
How it was run: as §1

PFTAIRE2 = PFTAIRE2 (Homo sapiens (Human), UniProt Q96Q40); settings: read-out: % control
How it was run: as §1

PIKFYVE = PIKFYVE (Homo sapiens (Human), UniProt Q9Y2I7); settings: read-out: % control
Chain of PIKFYVE (Q9Y2I7 whole entry): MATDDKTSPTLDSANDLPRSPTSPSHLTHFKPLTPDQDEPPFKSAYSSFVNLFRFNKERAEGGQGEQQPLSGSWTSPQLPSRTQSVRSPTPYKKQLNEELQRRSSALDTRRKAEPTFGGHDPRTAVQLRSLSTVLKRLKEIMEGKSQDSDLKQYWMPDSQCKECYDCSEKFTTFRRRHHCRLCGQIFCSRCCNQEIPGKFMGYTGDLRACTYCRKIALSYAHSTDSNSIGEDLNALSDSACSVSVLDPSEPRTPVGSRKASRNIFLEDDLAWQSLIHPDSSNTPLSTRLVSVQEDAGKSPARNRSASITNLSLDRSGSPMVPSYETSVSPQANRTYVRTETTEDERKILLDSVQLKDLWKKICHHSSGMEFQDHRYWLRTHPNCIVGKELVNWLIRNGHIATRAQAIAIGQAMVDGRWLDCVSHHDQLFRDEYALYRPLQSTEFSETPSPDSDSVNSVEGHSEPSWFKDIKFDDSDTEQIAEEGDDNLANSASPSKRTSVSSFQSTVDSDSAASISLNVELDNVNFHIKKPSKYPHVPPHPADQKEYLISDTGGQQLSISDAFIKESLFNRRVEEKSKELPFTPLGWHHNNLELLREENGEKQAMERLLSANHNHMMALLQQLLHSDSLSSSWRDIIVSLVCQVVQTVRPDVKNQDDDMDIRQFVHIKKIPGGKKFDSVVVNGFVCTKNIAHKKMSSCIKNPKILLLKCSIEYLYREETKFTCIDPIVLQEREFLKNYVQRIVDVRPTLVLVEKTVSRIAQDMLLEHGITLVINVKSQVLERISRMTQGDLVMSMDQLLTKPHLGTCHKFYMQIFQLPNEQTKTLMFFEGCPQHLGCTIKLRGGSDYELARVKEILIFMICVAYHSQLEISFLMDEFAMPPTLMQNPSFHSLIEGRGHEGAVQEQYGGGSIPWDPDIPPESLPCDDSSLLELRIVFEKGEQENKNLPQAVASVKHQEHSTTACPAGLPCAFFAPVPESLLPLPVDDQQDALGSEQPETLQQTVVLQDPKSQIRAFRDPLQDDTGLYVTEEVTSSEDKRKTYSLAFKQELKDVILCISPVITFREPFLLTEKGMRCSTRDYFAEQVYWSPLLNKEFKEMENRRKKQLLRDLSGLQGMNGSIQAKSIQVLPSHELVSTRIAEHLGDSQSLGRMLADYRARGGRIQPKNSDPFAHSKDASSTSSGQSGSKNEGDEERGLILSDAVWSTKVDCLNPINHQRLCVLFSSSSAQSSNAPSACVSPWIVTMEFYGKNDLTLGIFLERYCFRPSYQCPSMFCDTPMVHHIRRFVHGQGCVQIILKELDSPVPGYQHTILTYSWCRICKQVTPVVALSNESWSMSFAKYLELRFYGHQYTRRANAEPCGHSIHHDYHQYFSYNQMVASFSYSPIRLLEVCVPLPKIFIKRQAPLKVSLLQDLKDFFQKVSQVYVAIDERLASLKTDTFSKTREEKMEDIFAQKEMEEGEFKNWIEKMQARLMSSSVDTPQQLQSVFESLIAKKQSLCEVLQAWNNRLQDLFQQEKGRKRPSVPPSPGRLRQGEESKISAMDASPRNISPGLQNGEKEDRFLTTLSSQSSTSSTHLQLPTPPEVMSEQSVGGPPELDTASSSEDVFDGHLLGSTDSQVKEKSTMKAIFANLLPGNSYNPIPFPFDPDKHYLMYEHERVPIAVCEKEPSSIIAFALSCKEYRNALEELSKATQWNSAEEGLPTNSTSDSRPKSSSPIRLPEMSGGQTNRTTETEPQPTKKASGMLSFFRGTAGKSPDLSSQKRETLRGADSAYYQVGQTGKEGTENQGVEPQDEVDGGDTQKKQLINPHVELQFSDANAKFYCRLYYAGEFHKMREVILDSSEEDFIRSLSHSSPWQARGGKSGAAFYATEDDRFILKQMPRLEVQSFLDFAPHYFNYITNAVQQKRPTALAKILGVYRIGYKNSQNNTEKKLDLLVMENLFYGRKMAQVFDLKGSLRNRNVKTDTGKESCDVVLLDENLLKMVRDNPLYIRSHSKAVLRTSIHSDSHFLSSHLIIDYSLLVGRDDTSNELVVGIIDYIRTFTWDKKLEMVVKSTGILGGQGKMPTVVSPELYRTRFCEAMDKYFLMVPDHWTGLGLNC
How it was run: as §1

PKAC-alpha = PKAC-alpha (Homo sapiens (Human), UniProt P17612); settings: read-out: % control
How it was run: as §1

PKMYT1 = PKMYT1 (Homo sapiens (Human), UniProt Q99640); settings: read-out: % control
How it was run: as §1

RET = RET (Homo sapiens (Human), UniProt P07949); settings: read-out: % control
How it was run: as §1

[4] = biological target: RPS6KA5(Kin.Dom.2-C-terminal) (Homo sapiens (Human), UniProt O75582); settings: read-out: % control
How it was run: as §1

SRMS = SRMS (Homo sapiens (Human), UniProt Q9H3Y6); settings: read-out: % control
How it was run: as §1

TAOK1 = TAOK1 (Homo sapiens (Human), UniProt Q7L7X3); settings: read-out: % control
How it was run: as §1

WNK4 = WNK4 (Homo sapiens (Human), UniProt Q96J92); settings: read-out: % control
How it was run: as §1

Row | SMILES | remaining binding at 1 µM [1] | remaining binding at 1 µM (ABL1-nonphosphorylated) | remaining binding at 1 µM (ACVR1) | remaining binding at 1 µM (AKT2) | remaining binding at 1 µM (AURKC) | remaining binding at 1 µM (CDK4) | remaining binding at 1 µM (CDK7) | remaining binding at 1 µM (CDK8) | remaining binding at 1 µM (CHEK2) | remaining binding at 1 µM (CSNK2A1) | remaining binding at 1 µM (DRAK2) | remaining binding at 1 µM (EPHA4) | remaining binding at 1 µM (EPHA7) | remaining binding at 1 µM (ERBB2) | remaining binding at 1 µM (ERK8) | % control (FLT3(ITD, D835V)) | remaining binding at 1 µM (FRK) | remaining binding at 1 µM (GRK2) | remaining binding at 1 µM (HASPIN) | remaining binding at 1 µM (HIPK4) | also measured
1 | CCNc1cc(Nc2ccc(C(=O)N3CCC(N4CCOCC4)CC3)cc2OC)nc2[nH]cc(C(F)(F)F)c12 [Example 57, (4-((4-(ethylamino)-3-(trifluoromethyl)-1H-pyrrolo[2,3-b]pyridin-6-yl)amino)-3-methoxyphenyl) (4-morpholinopiperidin-1-yl)methanone] | 98% | 51% | 88% | 90% | 95% | 100% | 53% | 90% | 47% | 100% | 69% | 94% | 100% | 73% | 93% | 100% | 92% | 95% | 70% | 86% | percent of control binding at 1 µM (CSNK1D): 30%; remaining binding at 1 µM [2]: 45%; remaining binding at 1 µM [3]: 100%; remaining binding at 1 µM (MAP3K1): 79%; remaining binding at 1 µM (MEK5): 99%; remaining binding at 1 µM (MYLK2): 85%; remaining binding at 1 µM (NEK10): 100%; remaining binding at 1 µM (NEK7): 85%; remaining binding at 1 µM (OSR1): 82%; remaining binding at 1 µM (PAK4): 93%; remaining binding at 1 µM (PFTAIRE2): 94%; remaining binding at 1 µM (PIKFYVE): 77%; remaining binding at 1 µM (PKAC-alpha): 100%; remaining binding at 1 µM (PKMYT1): 96%; remaining binding at 1 µM (RET): 100%; remaining binding at 1 µM [4]: 83%; remaining binding at 1 µM (SRMS): 96%; remaining binding at 1 µM (TAOK1): 100%; remaining binding at 1 µM (WNK4): 100%
2 | CCNc1cc(Nc2ccc(C(=O)N3CCC(N4CCOCC4)CC3)cc2OC)nc2[nH]cc(C#N)c12 [Example 18, 4-(ethylamino)-6-((2-methoxy-4-(4-morpholinopiperidine-1-carbonyl)phenyl)amino)-1H-pyrrolo[2,3-b]pyridine-3-carbonitrile] | 100% | 97% | 92% | 87% | 92% | 100% | 55% | 100% | 4.1% | 83% | 27% | 98% | 94% | 99% | 99% | 100% | 94% | 71% | 7.6% | 100% | percent of control binding at 1 µM (CSNK1D; CSNK1D, 1 uM): 5.3%; remaining binding at 1 µM [2]: 82%; remaining binding at 1 µM [3]: 54%; remaining binding at 1 µM (MAP3K1): 90%; remaining binding at 1 µM (MEK5): 77%; remaining binding at 1 µM (MYLK2): 72%; remaining binding at 1 µM (NEK10): 73%; remaining binding at 1 µM (NEK7): 89%; remaining binding at 1 µM (OSR1): 41%; remaining binding at 1 µM (PAK4): 88%; remaining binding at 1 µM (PFTAIRE2): 79%; remaining binding at 1 µM (PIKFYVE): 99%; remaining binding at 1 µM (PKAC-alpha): 70%; remaining binding at 1 µM (PKMYT1): 90%; remaining binding at 1 µM (RET): 100%; remaining binding at 1 µM [4]: 10%; remaining binding at 1 µM (SRMS): 80%; remaining binding at 1 µM (TAOK1): 82%; remaining binding at 1 µM (WNK4): 79%
